{
  "source": "patent US10945992B1",
  "about": "“Dosage forms of rofecoxib and related methods” (Tremeau Pharmaceuticals, Inc., priority 2019, dated 2021)",
  "assay": "TRM-201-PK-102 single-dose four-period crossover pharmacokinetic study, fasted healthy subjects",
  "assay_type": "in vivo, human",
  "conditions": "human, plasma, oral",
  "experimental": "A Single-Dose, Open-Label, Phase 1, Four-Period Crossover Pharmacokinetic Study of TRM-201 (Rofecoxib) 12.5 mg, 17.5 mg, 20 mg and 25 mg Administered to Healthy Subjects in a Fasting State, with Comparison to Historical Pharmacokinetic Parameters of Previously Marketed Rofecoxib (“TRM-201-PK-102” or “102 PK Study”)\nThis was a single-center, open-label four-period crossover PK study of TRM-201. The study included 24 subjects who received TRM-201 as a single dose of 12.5 mg, 17.5 mg, 20 mg and 25 mg to assess the PK of TRM-201 in healthy volunteers under fasted conditions. Subjects were randomized to one of four treatment sequences. The PK data from the current study along with the data from the TRM-201-PK-101 study (Example 4) was used to compare to historical pharmacokinetic parameters of previously marketed rofecoxib, all in a fasted state.\nIn each of the four dosing periods, subjects fasted overnight for at least 10 hours before study drug dosing. While fasting, subjects had nothing to eat and only water to drink. Water was permitted as desired, except for the period between 1 hour before and 1 hour after study drug dosing (excepting as permitted for dosing). After the 2-hour PK blood sample, subjects were allowed one 250-mL cup of clear apple juice. After the 4-hour PK blood sample, subjects were served a light lunch. Following the light lunch, subjects received standardized meals according to the clinic's standard procedures that were scheduled at consistent times and at least 15 minutes before or 15 minutes after PK sampling time points. Blood was withdrawn for PK analysis at predefined time points. For each dosing period the last time point was 120 hours after dosing with study drug (Day 6). After the 120 hour PK sample, the EOP procedures was completed, subjects remained in-clinic for the in-between dose period day (Days 7, 14, and 21) and began the next dosing period starting with an overnight fast for at least 10 hours on Day −1 of the subsequent dosing period. Pharmacokinetic and safety endpoints were evaluated.\nThe study drug, TRM-201, was an immediate-release tablet that contained 12.5 mg rofecoxib, 17.5 mg rofecoxib, 20 mg rofecoxib or 25 mg rofecoxib. The 7.25-mm diameter tablets were off-white, round, and uncoated with no markings. TRM-201 tablets were for oral administration.\nFor each sample, approximately 3 mL of blood were drawn. The samples were obtained by a straight stick or via an in-dwelling intravenous (IV) catheter in a forearm vein. Additional details for the collection, processing, storage, and shipping of PK samples were provided in the study manual.\nPharmacokinetic samples will be analyzed using a validated assay for rofecoxib in human plasma. Assay results and validation details will be provided in a separate bioanalytical report. The following PK parameters for rofecoxib will be calculated as primary endpoints using standard noncompartmental methods: AUC0-∞ and Cmax. Secondary endpoints include Tmax, and t1/2. Additional PK parameters (e.g., CL/F, and Vd/F) will also be calculated using standard noncompartmental methods.\nIndividual plasma concentrations for rofecoxib and PK sampling time deviation data will be presented in a data listing. Plasma concentration data will be summarized by time point using the following descriptive statistics: number of subjects, arithmetic mean, SD, coefficient of variation (CV), geometric mean, natural-log-scale SD, geometric CV, median, minimum, and maximum. Individual plasma concentration versus actual time profiles were presented on both linear and semilogarithmic scales. Additionally, arithmetic mean concentration versus scheduled time profiles were presented on linear scales and geometric means on semilogarithmic scales.\nThe PK parameters of rofecoxib were analyzed based on the actual sampling times. […]",
  "key": {"[1]": {"conditions": "20 mg, read-out: arithmetic mean plasma concentration"}, "[2]": {"conditions": "20 mg, read-out: geometric mean plasma concentration"}},
  "note": "Read-outs that look alike come from different tables or passages of the source.",
  "data": [
    {"smiles": "CS(=O)(=O)c1ccc(C2=C(c3ccccc3)C(=O)OC2)cc1", "note": "[TRM-201, 4-[4-(methylsulfonyl)phenyl]-3-phenyl-2(5H)-furanone]", "values": [
      {"measurement": "AUC(0-inf)", "setting": "20 mg, 102 study only, read-out: arithmetic mean AUC0-∞", "value": 3750, "unit": "ng·h/mL"},
      {"measurement": "Cmax", "setting": "20 mg, 102 study only, read-out: arithmetic mean Cmax", "value": 277, "unit": "ng/mL"},
      {"measurement": "AUC(0-inf)", "setting": "20 mg, 102 study only, read-out: geometric mean AUC0-∞", "value": 3550, "unit": "ng·h/mL"},
      {"measurement": "Cmax", "setting": "20 mg, 102 study only, read-out: geometric mean Cmax", "value": 259, "unit": "ng/mL"},
      {"measurement": "AUC(0-inf)", "setting": "20 mg, 102 study, 18-40 years, read-out: arithmetic mean AUC0-∞", "value": 3580, "unit": "ng·h/mL"},
      {"measurement": "Cmax", "setting": "20 mg, 102 study, 18-40 years, read-out: arithmetic mean Cmax", "value": 308, "unit": "ng/mL"},
      {"measurement": "AUC(0-inf)", "setting": "20 mg, 102 study, 18-40 years, read-out: geometric mean AUC0-∞", "value": 3420, "unit": "ng·h/mL"},
      {"measurement": "Cmax", "setting": "20 mg, 102 study, 18-40 years, read-out: geometric mean Cmax", "value": 289, "unit": "ng/mL"},
      {"measurement": "AUC(0-inf)", "setting": "20 mg, 102 study, 41-52 years, read-out: arithmetic mean AUC0-∞", "value": 3730, "unit": "ng·h/mL"},
      {"measurement": "Cmax", "setting": "20 mg, 102 study, 41-52 years, read-out: arithmetic mean Cmax", "value": 262, "unit": "ng/mL"},
      {"measurement": "AUC(0-inf)", "setting": "20 mg, 102 study, 41-52 years, read-out: geometric mean AUC0-∞", "value": 3360, "unit": "ng·h/mL"},
      {"measurement": "Cmax", "setting": "20 mg, 102 study, 41-52 years, read-out: geometric mean Cmax", "value": 242, "unit": "ng/mL"},
      {"measurement": "AUC(0-inf)", "setting": "20 mg, 102 study, 53-60 years, read-out: arithmetic mean AUC0-∞", "value": 3940, "unit": "ng·h/mL"},
      {"measurement": "Cmax", "setting": "20 mg, 102 study, 53-60 years, read-out: arithmetic mean Cmax", "value": 260, "unit": "ng/mL"},
      {"measurement": "AUC(0-inf)", "setting": "20 mg, 102 study, 53-60 years, read-out: geometric mean AUC0-∞", "value": 3880, "unit": "ng·h/mL"},
      {"measurement": "Cmax", "setting": "20 mg, 102 study, 53-60 years, read-out: geometric mean Cmax", "value": 249, "unit": "ng/mL"},
      {"measurement": "AUC(0-inf)", "setting": "20 mg, 102 study, Black or African-American subjects, read-out: arithmetic mean AUC0-∞", "value": 3380, "unit": "ng·h/mL"},
      {"measurement": "Cmax", "setting": "20 mg, 102 study, Black or African-American subjects, read-out: arithmetic mean Cmax", "value": 298, "unit": "ng/mL"},
      {"measurement": "AUC(0-inf)", "setting": "20 mg, 102 study, Black or African-American subjects, read-out: geometric mean AUC0-∞", "value": 3300, "unit": "ng·h/mL"},
      {"measurement": "Cmax", "setting": "20 mg, 102 study, Black or African-American subjects, read-out: geometric mean Cmax", "value": 295, "unit": "ng/mL"},
      {"measurement": "AUC(0-inf)", "setting": "20 mg, 102 study, Hispanic or Latino subjects, read-out: arithmetic mean AUC0-∞", "value": 3840, "unit": "ng·h/mL"},
      {"measurement": "Cmax", "setting": "20 mg, 102 study, Hispanic or Latino subjects, read-out: arithmetic mean Cmax", "value": 281, "unit": "ng/mL"},
      {"measurement": "AUC(0-inf)", "setting": "20 mg, 102 study, Hispanic or Latino subjects, read-out: geometric mean AUC0-∞", "value": 3630, "unit": "ng·h/mL"},
      {"measurement": "Cmax", "setting": "20 mg, 102 study, Hispanic or Latino subjects, read-out: geometric mean Cmax", "value": 258, "unit": "ng/mL"},
      {"measurement": "AUC(0-inf)", "setting": "20 mg, 102 study, White subjects, read-out: arithmetic mean AUC0-∞", "value": 3850, "unit": "ng·h/mL"},
      {"measurement": "Cmax", "setting": "20 mg, 102 study, White subjects, read-out: arithmetic mean Cmax", "value": 271, "unit": "ng/mL"},
      {"measurement": "AUC(0-inf)", "setting": "20 mg, 102 study, White subjects, read-out: geometric mean AUC0-∞", "value": 3610, "unit": "ng·h/mL"},
      {"measurement": "Cmax", "setting": "20 mg, 102 study, White subjects, read-out: geometric mean Cmax", "value": 250, "unit": "ng/mL"},
      {"measurement": "AUC(0-inf)", "setting": "20 mg, 102 study, body weight 47-70 kg, read-out: arithmetic mean AUC0-∞", "value": 3650, "unit": "ng·h/mL"},
      {"measurement": "Cmax", "setting": "20 mg, 102 study, body weight 47-70 kg, read-out: arithmetic mean Cmax", "value": 336, "unit": "ng/mL"},
      {"measurement": "AUC(0-inf)", "setting": "20 mg, 102 study, body weight 47-70 kg, read-out: geometric mean AUC0-∞", "value": 3340, "unit": "ng·h/mL"},
      {"measurement": "Cmax", "setting": "20 mg, 102 study, body weight 47-70 kg, read-out: geometric mean Cmax", "value": 307, "unit": "ng/mL"},
      {"measurement": "AUC(0-inf)", "setting": "20 mg, 102 study, body weight 70.1-77 kg, read-out: arithmetic mean AUC0-∞", "value": 4500, "unit": "ng·h/mL"},
      {"measurement": "Cmax", "setting": "20 mg, 102 study, body weight 70.1-77 kg, read-out: arithmetic mean Cmax", "value": 259, "unit": "ng/mL"},
      {"measurement": "AUC(0-inf)", "setting": "20 mg, 102 study, body weight 70.1-77 kg, read-out: geometric mean AUC0-∞", "value": 4400, "unit": "ng·h/mL"},
      {"measurement": "Cmax", "setting": "20 mg, 102 study, body weight 70.1-77 kg, read-out: geometric mean Cmax", "value": 248, "unit": "ng/mL"},
      {"measurement": "AUC(0-inf)", "setting": "20 mg, 102 study, body weight 77.1-90 kg, read-out: arithmetic mean AUC0-∞", "value": 3250, "unit": "ng·h/mL"},
      {"measurement": "Cmax", "setting": "20 mg, 102 study, body weight 77.1-90 kg, read-out: arithmetic mean Cmax", "value": 238, "unit": "ng/mL"},
      {"measurement": "AUC(0-inf)", "setting": "20 mg, 102 study, body weight 77.1-90 kg, read-out: geometric mean AUC0-∞", "value": 3170, "unit": "ng·h/mL"},
      {"measurement": "Cmax", "setting": "20 mg, 102 study, body weight 77.1-90 kg, read-out: geometric mean Cmax", "value": 231, "unit": "ng/mL"},
      {"measurement": "AUC(0-inf)", "setting": "20 mg, 102 study, non-Hispanic or non-Latino subjects, read-out: arithmetic mean AUC0-∞", "value": 3660, "unit": "ng·h/mL"},
      {"measurement": "Cmax", "setting": "20 mg, 102 study, non-Hispanic or non-Latino subjects, read-out: arithmetic mean Cmax", "value": 272, "unit": "ng/mL"},
      {"measurement": "AUC(0-inf)", "setting": "20 mg, 102 study, non-Hispanic or non-Latino subjects, read-out: geometric mean AUC0-∞", "value": 3470, "unit": "ng·h/mL"},
      {"measurement": "Cmax", "setting": "20 mg, 102 study, non-Hispanic or non-Latino subjects, read-out: geometric mean Cmax", "value": 260, "unit": "ng/mL"},
      {"measurement": "concentration at 15 minutes", "setting": "[1]", "value": 5.75, "unit": "ng/mL"},
      {"measurement": "concentration at 15 minutes", "setting": "[2]", "value": 1.16, "unit": "ng/mL"},
      {"measurement": "concentration at 45 minutes", "setting": "[1]", "value": 121, "unit": "ng/mL"},
      {"measurement": "concentration at 45 minutes", "setting": "[2]", "value": 72.6, "unit": "ng/mL"},
      {"measurement": "AUC(0-inf)", "setting": "25 mg, 102 study only, read-out: arithmetic mean AUC0-∞", "value": 4630, "unit": "ng·h/mL"},
      {"measurement": "Cmax", "setting": "25 mg, 102 study only, read-out: arithmetic mean Cmax", "value": 349, "unit": "ng/mL"},
      {"measurement": "AUC(0-inf)", "setting": "25 mg, 102 study only, read-out: geometric mean AUC0-∞", "value": 4490, "unit": "ng·h/mL"},
      {"measurement": "Cmax", "setting": "25 mg, 102 study only, read-out: geometric mean Cmax", "value": 341, "unit": "ng/mL"},
      {"measurement": "AUC(0-inf)", "setting": "25 mg, 102 study, 18-40 years, read-out: arithmetic mean AUC0-∞", "value": 4140, "unit": "ng·h/mL"},
      {"measurement": "Cmax", "setting": "25 mg, 102 study, 18-40 years, read-out: arithmetic mean Cmax", "value": 366, "unit": "ng/mL"},
      {"measurement": "AUC(0-inf)", "setting": "25 mg, 102 study, 18-40 years, read-out: geometric mean AUC0-∞", "value": 4050, "unit": "ng·h/mL"},
      {"measurement": "Cmax", "setting": "25 mg, 102 study, 18-40 years, read-out: geometric mean Cmax", "value": 356, "unit": "ng/mL"},
      {"measurement": "AUC(0-inf)", "setting": "25 mg, 102 study, 41-52 years, read-out: arithmetic mean AUC0-∞", "value": 4810, "unit": "ng·h/mL"}
    ]}
  ]
}
